Measurements reported in patent US11691984B2, “Compounds and methods for DCAF-mediated protein degradation” (The Scripps Research Institute, priority 2018, dated 2023).

What was measured:
FLAG-FKBP12_NLS = FLAG-FKBP12_NLS (Homo sapiens, UniProt P62942); test: Western blot of stably expressed FLAG-FKBP12_NLS in MDA-MB-231 cells; format: cell-based; set-up: expressed in transfected cells; host or cells: HEK293T, MDA-MB-231 and HEK293 DCAF16+/+ and DCAF16-/- clones (lentiviral pCDH-CMV-MCS-EF1-Puro); settings: 1 μM, 8 hours
Chain of FLAG-FKBP12_NLS (P62942 whole entry): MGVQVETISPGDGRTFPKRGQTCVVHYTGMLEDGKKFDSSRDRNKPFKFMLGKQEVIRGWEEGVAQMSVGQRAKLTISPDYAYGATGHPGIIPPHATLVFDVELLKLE
Method: FLAG-FKBP12 or FLAG-FKBP12_NLS lentivirus was generated by co-transfection of FLAG-FKBP12 or FLAG-FKBP12_NLS, pCMV-dR8.2 and pMD2.G into HEK 293T cells using FuGene 6 transfection reagent (Promega). Virus-containing medium were collected 48 h after transfection, filtered with […] filter, and used to transduce HEK293T and MDA-MB-231 cells in the presence of 10 μg/mL polybrene (Santa Cruz). 72 h after transduction, puromycin (2 μg/mL) was added to cells. HEK293T cells stably expressing FLAG-FKBP12 or FLAG-FKBP12_NLS were obtained after puromycin selection for 7 days. HEK293T cells stably expressing pCDH empty vector were generated in parallel as control.
(§1) Cells were collected and lysed in 1% NP-40 lysis buffer (25 mM Tris-HCl pH 7.4, 150 mM NaCl, 10% glycerol, 1% Nonidet P-40) with complete protease inhibitor cocktail (Roche). Cells were vortexed and sonicated for 5 pulses (40%, 4). The supernatant was collected after centrifugation at 16,000 g for 10 min at 4° C. Protein concentration was determined by DC assay (Bio-Rad). Protein lysate was heated at 95° C. for 5 min in 1× Laemmli sample buffer. Proteins were resolved by 12% or 14% Novex Tris-Glycine Mini Gels (Invitrogen) and transferred to polyvinylidene fluoride (PVDF) membrane (0.2 Bio-Rad). The membrane was blocked with 5% BSA in TBST buffer (0.1% Tween 20, 20 mM Tris-HCl 7.6, 150 mM NaCl) at room temperature for 1 h. The antibody was diluted with fresh 5% BSA in TBST buffer (1:10000 dilution for FLAG, HA and β-Actin, 1:1000 dilution for others) and incubated with membrane (1 h room temperature for FLAG, HA and β-Actin, overnight 4° C. for others). Membrane was washed three times with TBST buffer and incubated with secondary antibody (1:5000 dilution in 5% BSA in TBST) at room temperature for 1 h. Membrane was washed three times with TBST buffer. The chemiluminescence signal in membrane was recorded after developing in ECL or ECL plus western blotting detection reagent using CL-XPosure film (Thermo Scientific). Relative band intensities were quantified using ImageJ.

DCAF16 = target: T1, DCAF16 (Homo sapiens, UniProt Q9NXF7); test: LC-MS/MS detection of KB02-PEG0-SLF-modified tryptic peptides on DCAF16; format: binding; settings: HA-DCAF16-transfected HEK293T, 10 μM, 2 h
T1 construct: endogenously expressed DCAF16 in HEK293T cells; endogenous in cells; host or cells: HEK293T
T1 sequence (Q9NXF7 whole entry): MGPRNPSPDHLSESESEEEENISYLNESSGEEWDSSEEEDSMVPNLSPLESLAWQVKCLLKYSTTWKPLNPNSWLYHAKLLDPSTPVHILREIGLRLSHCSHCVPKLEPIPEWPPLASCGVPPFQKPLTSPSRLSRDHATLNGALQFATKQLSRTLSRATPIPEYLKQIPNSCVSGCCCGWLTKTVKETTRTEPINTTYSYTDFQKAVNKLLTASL
Method: HEK293T cells were transfected with HA-DCAF16 plasmid by PEI transfection reagent for 24 h and treated with DMSO or 10 μM KB02-PEG0-SLF for 2 h. Cells were collected and lysed in 1% NP-40 lysis buffer with complete protease inhibitor cocktail. HA immunoprecipitation was performed with 10 mg of total protein lysates to purify HA-DCAF16. After washing the HA resin three times with IP washing buffer and once with PBS, HA-DCAF16 protein was eluted by heating at 65° C. for 10 min with 8M urea in PBS, then reduced with 12.5 mM DTT at 65° C. for 15 min and alkylated with 25 mM iodoacetamide at 37° C. for 30 min. The protein solution was diluted with PBS to 2M urea and digested with 2 μg trypsin at 37° C. for 6 h. Tryptic peptides were acidified with 5% formic acid and loaded onto a silica capillary column (250 μm) packed with 3 cm of C18 resin (Aqua 5 Phenomenex). Peptides were analyzed on LTQ-Orbitrap Elite mass spectrometer (Thermo Scientific) coupled with a Thermo UltiMate 3000 UHPLC system. Peptides were separated on a capillary column packed with 10 cm of C18 resin (Aqua 5 Phenomenex) and a 5 μm tip. The flow rate was 0.5 μL/min. […]

[1] = target: T2, HA-DCAF16 and FLAG-FKBP12_NLS (Homo sapiens, UniProt P62942+Q9NXF7); test: Co-immunoprecipitation of HA-DCAF16 with FLAG-FKBP12_NLS (ternary complex) in HEK293T cells; format: cell-based; settings: 5 μM, MG132 10 μM, 2 hours
T2 construct: expressed in transfected cells; host or cells: HEK293T stably expressing FLAG-FKBP12_NLS, transiently transfected with HA-DCAF16 (pRK5)
T2 sequence (Q9NXF7 whole entry): as above
T2 sequence (P62942 2-108): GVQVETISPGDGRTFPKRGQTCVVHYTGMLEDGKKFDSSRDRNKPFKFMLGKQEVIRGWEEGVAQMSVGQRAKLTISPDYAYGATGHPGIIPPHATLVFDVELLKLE
T2 sequence (Q16531 whole entry partner): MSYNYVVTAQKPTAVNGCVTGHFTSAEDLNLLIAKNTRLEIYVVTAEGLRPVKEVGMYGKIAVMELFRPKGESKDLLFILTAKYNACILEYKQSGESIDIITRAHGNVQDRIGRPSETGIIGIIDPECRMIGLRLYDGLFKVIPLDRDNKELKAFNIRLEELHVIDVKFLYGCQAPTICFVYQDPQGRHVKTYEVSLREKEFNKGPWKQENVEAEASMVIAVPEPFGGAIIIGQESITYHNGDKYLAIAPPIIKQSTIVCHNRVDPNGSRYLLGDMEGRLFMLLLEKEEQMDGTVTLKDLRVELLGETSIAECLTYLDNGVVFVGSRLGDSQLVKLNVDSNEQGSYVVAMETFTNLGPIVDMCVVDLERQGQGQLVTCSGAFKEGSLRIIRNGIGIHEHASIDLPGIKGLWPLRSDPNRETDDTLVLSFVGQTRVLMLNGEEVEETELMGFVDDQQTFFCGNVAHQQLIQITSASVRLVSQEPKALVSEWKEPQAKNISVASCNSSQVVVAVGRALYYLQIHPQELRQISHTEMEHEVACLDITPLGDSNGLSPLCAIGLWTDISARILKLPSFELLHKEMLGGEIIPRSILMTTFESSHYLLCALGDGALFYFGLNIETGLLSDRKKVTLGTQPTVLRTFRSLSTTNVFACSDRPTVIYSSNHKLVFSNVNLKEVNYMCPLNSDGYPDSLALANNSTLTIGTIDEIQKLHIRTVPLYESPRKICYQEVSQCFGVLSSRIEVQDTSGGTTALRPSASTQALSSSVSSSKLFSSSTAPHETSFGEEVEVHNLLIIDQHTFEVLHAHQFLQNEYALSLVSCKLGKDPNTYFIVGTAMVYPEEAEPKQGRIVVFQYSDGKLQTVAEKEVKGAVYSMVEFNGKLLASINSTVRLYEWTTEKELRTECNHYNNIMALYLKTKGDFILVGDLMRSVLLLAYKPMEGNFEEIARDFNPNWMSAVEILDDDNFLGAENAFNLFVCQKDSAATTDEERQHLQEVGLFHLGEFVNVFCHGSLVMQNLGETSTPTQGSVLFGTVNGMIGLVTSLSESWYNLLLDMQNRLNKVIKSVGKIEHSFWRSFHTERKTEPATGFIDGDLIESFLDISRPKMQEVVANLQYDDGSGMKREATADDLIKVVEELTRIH
Method: as §1
Cells were collected and lysed in 1% NP-40 lysis buffer with complete protease inhibitor cocktail on ice for 10 min, followed by 5 pulses of sonication (40%, 4). After centrifugation at 16,000 g for 10 min at 4° C., the supernatant was collected. FLAG affinity gel (20 μL slurry per sample) was incubated with protein lysates at 4° C. for 1 h and washed four times with IP washing buffer. The affinity gel was heated at 95° C. for 10 min in 2× Laemmli sample buffer, followed by western blot analysis.

CCC(C)(C)C(=O)C(=O)N1CCCC[C@H]1C(=O)O[C@H](CCc1ccc(OC)c(OC)c1)c1cccc(NC(=O)COc2ccc3c(c2)CCCN3C(=O)CCl)c1 [KB02-PEG0-SLF, (R)-1-(3-(2-((1-(2-chloroacetyl)-1,2,3,4-tetrahydroquinolin-6-yl)oxy)acetamido)phenyl)-3-(3,4-dimethoxyphenyl)propyl (5)-1-(3,3-dimethyl-2-oxopentanoyl)piperidine-2-carboxylate]
degradation of FLAG-FKBP12_NLS in MDA-MB-231 cells (FLAG-FKBP12_NLS): degradation of stably expressed FLAG-FKBP12_NLS | modified DCAF16 tryptic peptide identified (DCAF16): tryptic peptide (aa 168-184) containing C173 and C177-179 | co-immunoprecipitation of HA-DCAF16 with FLAG-FKBP12_NLS [1]: co-immunoprecipitated with HA-DCAF16
